The target in assay [1] is T1, Wild-type yeast BC domain (Saccharomyces cerevisiae, UniProt Q00955).
T1 construct: Residues 2-581 of yeast ACC were sub-cloned into the pET28a vector; made in house; host or cells: E. coli BL21(DE3) Rosetta
Kind of assay: radioactive binding assay, wild-type yeast BC domain. The note with it: read-out: Kd (nM) (radiactive assay). How it is done: (§1) The mutants were designed based on the structural information and made with the QuikChange kit (Stratagene). The mutants were sequenced, expressed in E. coli, and purified following the same protocol as that for the wild-type BC domain. The affinity of soraphen for the mutants were assessed using a radioactive binding assay (Weatherly et al., supra (2004)).

Assay [2] addresses BC domain of eukaryotic ACCs. Conditions: literature; cited from earlier work.
Assay [3] deals with T2, W487R mutant yeast BC domain (Saccharomyces cerevisiae, UniProt Q00955, W487R).
T2 construct: Residues 2-581 of yeast ACC were sub-cloned into the pET28a vector; made in house; host or cells: E. coli
The experiment in a line: fluorescence-based binding assay, W487R mutant. The note with it: W487R mutant (data not shown). How it is done: (§2) We have developed a fluorescence-based binding assay using our structural information, which monitored the increase in Trp emission upon soraphen binding. The binding buffer initially contained 100 mM Tris (pH 8.0), 100 mM NaCl, and 50 nM wild-type or mutant enzyme, and increasing concentrations of soraphen A was titrated into the solution. The observed binding curve is fitted using conventional methods or the tight-binding model where appropriate.
(§3) We next developed a fluorescence-based binding assay using the structural information. […] There is also a slight blue shift in the fluorescence emission maximum upon soraphen binding. The observed increase in Trp fluorescence as a function of soraphen concentration can be easily fit to a one-site binding model (FIG. 5), confirming that there is a single binding site for soraphen in the BC domain. The binding affinity obtained from this fluorescence assay is generally in good agreement with that based on the radioactive binding assay (Table 3) (Weatherly et al., supra (2004)). Compared to the radioactive assay, the fluorescence assay has the advantage that it can measure affinity between 1 nM to 10 μM, whereas the radioactive assay is limited to Kd values […] ˜50 nM.

The target of assay [4] is T3, K73R mutant yeast BC domain (Saccharomyces cerevisiae, UniProt Q00955, K73R).
T3 construct: Residues 2-581 of yeast ACC were sub-cloned into the pET28a vector; made in house; host or cells: E. coli
The experiment in a line: fluorescence-based binding assay, K73R mutant. How it is done:
as §2, §3

In assay [5] the target is T2, W487R mutant yeast BC domain. The experiment in a line: radioactive binding assay, W487R mutant. The note with it: up to 60 nM soraphen A, 10 nM protein, read-out: Kd (nM) (radiactive assay). How it is done:
as §1

Assay [6] addresses T4, F510I mutant yeast BC domain (Saccharomyces cerevisiae, UniProt Q00955, F510I).
T4 construct: Residues 2-581 of yeast ACC were sub-cloned into the pET28a vector; made in house; host or cells: E. coli
The experiment in a line: fluorescence-based binding assay, F510I mutant. The method, then: as §2, §3

Assay [7] concerns the target T4, F510I mutant yeast BC domain. The experiment in a line: radioactive binding assay, F510I mutant. Conditions: read-out: Kd (nM) (radiactive assay). How it is done: as §1
In assay [8] the target is T5, I69E mutant yeast BC domain (Saccharomyces cerevisiae, UniProt Q00955, I69E).
T5 construct: Residues 2-581 of yeast ACC were sub-cloned into the pET28a vector; made in house; host or cells: E. coli
The experiment in a line: radioactive binding assay, I69E mutant. Conditions: up to 60 nM soraphen A, 10 nM protein, read-out: Kd (nM) (radiactive assay). How it is done: as §1

In assay [9] the target is T6, K73R mutant of the BC domain (Saccharomyces cerevisiae, UniProt Q00955, K73R).
T6 construct: Residues 2-581 of yeast ACC were sub-cloned into the pET28a vector; made in house; host or cells: E. coli
The experiment in a line: native gel electrophoresis assay, K73R mutant. Conditions: K73R mutant of yeast BC domain, 12% native gel. The method, then: (§4) FIG. 7. […] Schematic drawing of the dimer of E. coli BC subunit in complex with ATP (Thoden et al., supra 2000). The dimer axis is indicated with the magenta oval. […] (B). Native gel (12%) showing the electrophoretic mobility of wild-type and K73R mutant of yeast BC domain in the absence or presence of soraphen. […] Each lane was loaded with 20 μg of protein in 10 μl.
(§5) To obtain experimental evidence for the effects of soraphen A on the oligomerization state of BC domains, we examined the mobility of the yeast BC domain in a native gel electrophoresis assay.

Assay [10] addresses T1, Wild-type yeast BC domain. Kind of assay: native gel electrophoresis assay, wild-type BC domain. Conditions: 12% native gel. How it is done: as §4, §5
The target in assay [11] is T7, E477R mutant yeast BC domain (Saccharomyces cerevisiae, UniProt Q00955, E477R).
T7 construct: Residues 2-581 of yeast ACC were sub-cloned into the pET28a vector; made in house; host or cells: E. coli
Kind of assay: fluorescence-based binding assay, E477R mutant. The note with it: 50 nM enzyme. How it is done:
as §2, §3

For assay [12], the target named is T8, BC domain of human ACC1 (Homo sapiens, UniProt Q13085).
T8 construct: the BC domains of human ACC1 and ACC2
Kind of assay: binding to BC domain of human ACC1 (unpublished results).

Assay [13] addresses T9, BC domain of human ACC2 (Homo sapiens, UniProt O00763).
T9 construct: the BC domains of human ACC1 and ACC2
The experiment in a line: binding to BC domain of human ACC2 (unpublished results).

The target of assay [14] is K73R mutation of yeast ACC (Saccharomyces cerevisiae, UniProt Q00955, K73R). The note with it: cited from earlier work.
In assay [15] the test system is ACC. Conditions: kinetic data, literature; cited from earlier work.
The target in assay [16] is T10, active site of yeast BC domain (Saccharomyces cerevisiae, UniProt Q00955).
T10 construct: Residues 2-581 of yeast ACC were sub-cloned into the pET28a vector; made in house; host or cells: E. coli BL21(DE3) Rosetta
The experiment in a line: binding of fluorescent ATP analog (Mant-ATP) to active site. Conditions: preliminary experiments, unpublished data.

Assay [17] has as its target yeast ACC Ser77 to Tyr mutant (Saccharomyces cerevisiae, UniProt Q00955, S77Y). The note with it: yeast ACC with Ser77 mutated to Tyr, literature; cited from earlier work.
Assay [18] has as its target T11, N485G mutant yeast BC domain (Saccharomyces cerevisiae, UniProt Q00955, N485G).
T11 construct: Residues 2-581 of yeast ACC were sub-cloned into the pET28a vector; made in house; host or cells: E. coli
The experiment in a line: radioactive binding assay, N485G mutant. The note with it: read-out: Kd (nM) (radiactive assay). The method, then: as §1

The target of assay [19] is T1, Wild-type yeast BC domain. Kind of assay: fluorescence-based binding assay (Trp emission), wild-type. The note with it: 50 nM enzyme. The method, then: as §2, §3
Assay [20] concerns the target T12, S77Y mutant yeast BC domain (Saccharomyces cerevisiae, UniProt Q00955, S77Y).
T12 construct: Residues 2-581 of yeast ACC were sub-cloned into the pET28a vector; made in house; host or cells: E. coli
The experiment in a line: radioactive binding assay, S77Y mutant. Conditions: up to 60 nM soraphen A, 10 nM protein, read-out: Kd (nM) (radiactive assay). The method, then: as §1

The target of assay [21] is T3, K73R mutant yeast BC domain. The experiment in a line: radioactive binding assay, K73R mutant. The note with it: up to 60 nM soraphen A, 10 nM protein, read-out: Kd (nM) (radiactive assay). How it is done: as §1
The target in assay [22] is T11, N485G mutant yeast BC domain. The experiment in a line: fluorescence-based binding assay, N485G mutant. Conditions: 50 nM enzyme. How it is done:
as §2, §3

For assay [23], the system named is bacterial BC subunits. The note with it: literature; cited from earlier work.
Assay [24] deals with T5, I69E mutant yeast BC domain. Kind of assay: fluorescence-based binding assay, I69E mutant. The note with it: 50 nM enzyme. The method, then: as §2, §3
In assay [25] the target is T7, E477R mutant yeast BC domain. The experiment in a line: radioactive binding assay, E477R mutant. The note with it: read-out: Kd (nM) (radiactive assay). The method, then:
as §1

For assay [26] the following is noted: literature SAR, in words; cited from earlier work.

Some results are limits rather than exact numbers.

T4 sequence (Q00955 2-581 F510I): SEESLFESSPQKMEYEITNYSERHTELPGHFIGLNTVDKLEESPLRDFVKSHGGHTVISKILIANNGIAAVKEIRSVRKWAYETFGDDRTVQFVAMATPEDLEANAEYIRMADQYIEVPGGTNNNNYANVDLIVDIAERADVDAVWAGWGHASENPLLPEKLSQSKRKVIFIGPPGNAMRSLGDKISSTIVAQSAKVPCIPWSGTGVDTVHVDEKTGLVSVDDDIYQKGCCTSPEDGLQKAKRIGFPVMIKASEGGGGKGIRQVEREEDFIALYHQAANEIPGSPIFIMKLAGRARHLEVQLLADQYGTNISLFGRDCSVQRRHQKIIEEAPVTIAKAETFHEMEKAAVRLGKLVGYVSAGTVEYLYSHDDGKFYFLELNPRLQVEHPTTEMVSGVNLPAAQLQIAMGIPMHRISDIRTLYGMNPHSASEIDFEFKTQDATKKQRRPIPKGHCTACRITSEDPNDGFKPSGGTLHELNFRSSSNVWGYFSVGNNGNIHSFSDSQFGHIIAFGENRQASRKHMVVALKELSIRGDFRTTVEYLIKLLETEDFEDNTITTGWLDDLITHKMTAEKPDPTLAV
T1 sequence (Q00955 2-581): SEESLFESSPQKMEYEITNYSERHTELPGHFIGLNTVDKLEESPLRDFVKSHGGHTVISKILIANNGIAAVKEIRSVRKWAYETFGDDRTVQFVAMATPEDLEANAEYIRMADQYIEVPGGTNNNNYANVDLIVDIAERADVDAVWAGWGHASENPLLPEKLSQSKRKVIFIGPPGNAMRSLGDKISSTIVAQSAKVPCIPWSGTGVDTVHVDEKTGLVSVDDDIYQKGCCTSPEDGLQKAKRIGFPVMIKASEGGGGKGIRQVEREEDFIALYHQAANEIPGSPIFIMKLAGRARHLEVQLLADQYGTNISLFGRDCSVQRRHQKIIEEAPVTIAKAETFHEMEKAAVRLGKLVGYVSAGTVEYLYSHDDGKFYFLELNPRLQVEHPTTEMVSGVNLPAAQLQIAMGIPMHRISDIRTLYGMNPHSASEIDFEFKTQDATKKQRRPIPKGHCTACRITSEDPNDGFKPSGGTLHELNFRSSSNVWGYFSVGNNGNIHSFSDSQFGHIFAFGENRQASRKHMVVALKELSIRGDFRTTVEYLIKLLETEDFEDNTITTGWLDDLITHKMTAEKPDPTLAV
T3 sequence (Q00955 2-581 K73R): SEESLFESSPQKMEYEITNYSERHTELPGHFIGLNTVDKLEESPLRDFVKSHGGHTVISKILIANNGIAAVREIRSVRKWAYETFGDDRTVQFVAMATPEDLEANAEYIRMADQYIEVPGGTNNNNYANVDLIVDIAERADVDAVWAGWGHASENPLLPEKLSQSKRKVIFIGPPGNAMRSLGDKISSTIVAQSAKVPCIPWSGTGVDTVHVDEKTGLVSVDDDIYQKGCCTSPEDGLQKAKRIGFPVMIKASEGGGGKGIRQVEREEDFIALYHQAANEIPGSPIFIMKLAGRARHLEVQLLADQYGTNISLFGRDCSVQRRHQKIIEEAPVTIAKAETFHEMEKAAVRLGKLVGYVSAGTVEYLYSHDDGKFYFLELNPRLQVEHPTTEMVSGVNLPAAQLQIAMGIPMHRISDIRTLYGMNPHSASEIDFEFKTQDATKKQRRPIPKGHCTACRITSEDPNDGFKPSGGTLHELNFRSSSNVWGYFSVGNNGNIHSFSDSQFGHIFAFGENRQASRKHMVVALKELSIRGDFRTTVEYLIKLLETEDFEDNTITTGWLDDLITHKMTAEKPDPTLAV
T5 sequence (Q00955 2-581 I69E): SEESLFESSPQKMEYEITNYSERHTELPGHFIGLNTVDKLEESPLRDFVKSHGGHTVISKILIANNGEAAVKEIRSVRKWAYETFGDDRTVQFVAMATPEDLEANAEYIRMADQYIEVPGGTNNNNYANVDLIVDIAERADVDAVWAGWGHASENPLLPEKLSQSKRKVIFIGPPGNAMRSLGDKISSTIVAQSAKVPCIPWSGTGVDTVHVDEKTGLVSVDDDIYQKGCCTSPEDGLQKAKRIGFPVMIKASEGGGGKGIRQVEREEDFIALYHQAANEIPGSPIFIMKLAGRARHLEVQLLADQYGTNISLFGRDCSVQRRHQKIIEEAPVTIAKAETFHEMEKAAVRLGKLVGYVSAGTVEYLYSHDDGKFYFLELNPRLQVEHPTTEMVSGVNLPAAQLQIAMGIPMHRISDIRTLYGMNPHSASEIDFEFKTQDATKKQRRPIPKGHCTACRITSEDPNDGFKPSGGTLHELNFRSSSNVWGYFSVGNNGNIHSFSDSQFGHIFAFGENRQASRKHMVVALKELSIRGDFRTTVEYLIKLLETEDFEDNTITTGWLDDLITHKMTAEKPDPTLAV
T2 sequence (Q00955 2-581 W487R): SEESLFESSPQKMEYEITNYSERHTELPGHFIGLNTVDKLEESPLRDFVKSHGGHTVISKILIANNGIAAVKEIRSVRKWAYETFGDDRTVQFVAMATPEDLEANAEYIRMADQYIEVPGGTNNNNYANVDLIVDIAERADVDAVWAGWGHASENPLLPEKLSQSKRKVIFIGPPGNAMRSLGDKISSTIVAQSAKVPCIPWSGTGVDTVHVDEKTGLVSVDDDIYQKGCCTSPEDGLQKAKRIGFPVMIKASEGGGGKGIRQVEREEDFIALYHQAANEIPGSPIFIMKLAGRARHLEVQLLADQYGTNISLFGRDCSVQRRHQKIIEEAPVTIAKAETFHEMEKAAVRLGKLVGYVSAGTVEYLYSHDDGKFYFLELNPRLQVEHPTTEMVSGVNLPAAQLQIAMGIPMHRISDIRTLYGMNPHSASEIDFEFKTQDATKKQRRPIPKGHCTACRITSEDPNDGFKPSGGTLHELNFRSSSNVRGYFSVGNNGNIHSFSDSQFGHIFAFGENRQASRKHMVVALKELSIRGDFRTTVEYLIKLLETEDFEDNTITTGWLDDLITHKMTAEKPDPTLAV
T7 sequence (Q00955 2-581 E477R): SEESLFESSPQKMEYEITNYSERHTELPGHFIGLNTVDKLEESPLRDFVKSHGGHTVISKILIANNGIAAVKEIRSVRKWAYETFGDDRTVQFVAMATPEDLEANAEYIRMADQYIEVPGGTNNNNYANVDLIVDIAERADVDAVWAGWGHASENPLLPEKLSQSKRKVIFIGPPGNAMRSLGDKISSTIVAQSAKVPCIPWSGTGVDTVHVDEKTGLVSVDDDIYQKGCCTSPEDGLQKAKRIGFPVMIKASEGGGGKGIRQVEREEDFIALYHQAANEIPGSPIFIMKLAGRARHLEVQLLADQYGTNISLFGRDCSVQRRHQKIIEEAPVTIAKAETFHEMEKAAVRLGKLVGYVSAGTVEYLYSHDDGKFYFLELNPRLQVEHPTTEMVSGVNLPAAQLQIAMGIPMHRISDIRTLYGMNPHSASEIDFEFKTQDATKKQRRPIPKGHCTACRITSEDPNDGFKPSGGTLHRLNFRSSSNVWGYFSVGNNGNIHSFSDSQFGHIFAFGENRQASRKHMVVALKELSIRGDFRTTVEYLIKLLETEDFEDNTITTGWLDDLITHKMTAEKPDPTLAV
T11 sequence (Q00955 2-581 N485G): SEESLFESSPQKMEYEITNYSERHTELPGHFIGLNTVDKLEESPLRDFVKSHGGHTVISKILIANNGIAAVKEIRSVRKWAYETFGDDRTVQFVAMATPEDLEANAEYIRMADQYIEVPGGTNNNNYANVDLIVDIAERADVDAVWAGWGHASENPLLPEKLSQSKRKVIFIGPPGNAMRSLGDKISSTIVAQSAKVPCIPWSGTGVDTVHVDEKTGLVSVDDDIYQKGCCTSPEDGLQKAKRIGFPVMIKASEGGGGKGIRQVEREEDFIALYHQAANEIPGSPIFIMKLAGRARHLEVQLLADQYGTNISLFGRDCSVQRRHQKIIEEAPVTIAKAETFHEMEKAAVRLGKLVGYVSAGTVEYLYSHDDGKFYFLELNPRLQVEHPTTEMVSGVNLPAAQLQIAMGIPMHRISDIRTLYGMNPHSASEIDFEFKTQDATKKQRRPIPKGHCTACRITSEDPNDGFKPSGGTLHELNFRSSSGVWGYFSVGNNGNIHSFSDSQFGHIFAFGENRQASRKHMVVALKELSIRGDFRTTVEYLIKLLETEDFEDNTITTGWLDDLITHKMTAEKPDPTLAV
T12 sequence (Q00955 2-581 S77Y): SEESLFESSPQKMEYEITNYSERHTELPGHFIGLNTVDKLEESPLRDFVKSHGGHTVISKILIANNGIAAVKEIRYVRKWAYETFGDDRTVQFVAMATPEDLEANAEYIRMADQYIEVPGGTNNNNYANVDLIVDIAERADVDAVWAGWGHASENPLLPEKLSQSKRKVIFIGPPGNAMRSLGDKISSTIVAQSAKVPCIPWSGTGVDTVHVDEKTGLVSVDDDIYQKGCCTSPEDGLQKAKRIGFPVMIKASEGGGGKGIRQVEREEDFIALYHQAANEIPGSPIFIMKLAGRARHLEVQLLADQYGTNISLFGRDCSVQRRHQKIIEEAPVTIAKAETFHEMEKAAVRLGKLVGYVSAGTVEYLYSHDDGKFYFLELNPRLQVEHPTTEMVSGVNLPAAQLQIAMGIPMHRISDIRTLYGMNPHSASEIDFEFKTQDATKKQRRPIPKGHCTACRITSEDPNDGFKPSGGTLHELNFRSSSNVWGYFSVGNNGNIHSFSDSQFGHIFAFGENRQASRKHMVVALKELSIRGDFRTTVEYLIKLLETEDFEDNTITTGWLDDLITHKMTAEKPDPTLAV

As a reminder, the Kd is a measure of binding affinity in units of concentration. Consider `CO[C@H]1CCCC[C@@H](c2ccccc2)OC(=O)[C@@H](C)[C@@]2(O)O[C@H]([C@@H](C)[C@H](O)[C@H]2OC)[C@@H](C)/C=C/[C@H]1OC` [soraphen A], for which the Kd was 2 ± 0.9 nM in assay [1]; about 1 nM in assay [2]; 2010 ± 174 nM in assay [4] (K73R yeast BC domain, 50 nM enzyme); over 60 nM in assay [5]; 10.6 ± 4.8 nM in assay [6] (F510I yeast BC domain, 50 nM enzyme); 5.7 ± 1 nM in [7]. In addition, the Kd in [8] is over 60 nM; in assay [11] it was 274 ± 30 nM; in assay [12] it was about 1 nM; in [13], about 1 nM; in assay [18], 2.7 ± 0.4 nM; in assay [19], 3.9 ± 0.7 nM. For the same compound, the Kd is over 60 nM in assay [20]; over 60 nM in [21]; 55 ± 4 nM in [22]; 104 ± 18 nM in assay [24]; 24.7 ± 10.4 nM in assay [25]. For the same compound, the “fluorescence change in the presence of soraphen” value in [3] was “little fluorescence change”. Moreover, the “Kd (in words)” value in [4] (K73R mutant) is “micromolar range”. Besides, in assay [4] (K73R mutant versus wild-type), the “loss in affinity for soraphen” value came to 500 fold. Moreover, in assay [6] (F510I mutation versus wild-type), the “impact on the affinity for soraphen” value is listed as “minor impact”. Also, the “electrophoretic mobility in native gel in the presence of soraphen A” value in [9] is given as “not affected”; in [10], “a sharp band is observed, with the fastest migrating speed”. Further, the “resistance to soraphen A” value in assay [14] is listed as “resistance”. Also, the “mode of inhibition with respect to the substrates of ACC” value in assay [15] was “noncompetitive”. Besides, the “interference with the binding of Mant-ATP to the active site” value in assay [16] was “does not interfere”. Further, the “sensitivity of the enzyme to soraphen A” value in assay [17] is on record as “insensitive”. In addition, the “effect on bacterial BC subunits” value in [23] was “no effect”.
On to soraphen F, for which the “activity relative to soraphen A” value in assay [26] is recorded as “moderate loss of activity”.

The values above are taken from US20090215627A1, “Crystal Structure of Biotin Carboxylase (Bc) Domain of Acetyl-Coenzyme a Carboxylase and Methods of Use Thereof” (priority 2004, published 2009).
